Test results from patent publication US12403129B2, “Isotope-enriched 3-amino-1-propanesulfonic acid derivatives for the treatment of cerebrovascular disease” (RISEN (SUZHOU) PHARMA TECH CO., LTD., priority 2021, dated 2025).

Assays:
Bax = Bax expression by Western blotting, ischemia-reperfusion dementia mice; format: in vivo, C57BL/6J mice
Method: (§1) 140 healthy C57BL/6J mice, including 70 males and 70 females, were used. 1% Pentobarbital Sodium (50 mg/kg) was injected intraperitoneally to anesthetize the mice. The back position was fixed, the neck hair was removed, and the common carotid arteries were cut along the middle of the neck after iodophor disinfection. The common carotid arteries were separated, clamped with a noninvasive artery clamp for 15 minutes, released for 10 minutes, and then clamped for 10 minutes. Penicillin powder was then applied to suture muscles and skin. The sham operation group was not clamped, and other operations were the same as for the model group. […]
(§2) The main pathological index included: investigation of the improvement of learning and memory impairment by the compound in the pathogenic model of cerebral ischemia-reperfusion using behavioral experimental methods such as Y maze, new object discrimination, spontaneous activity, Morris water maze and passive avoidance experiment (dark avoidance); investigation of the ultrastructure of nerve cells (including nucleus, mitochondria and synapse) by HE staining and immunofluorescence; detection of expression of synaptic associated proteins SYP and PSD95 by Western blotting; and detection of expression of apoptosis-related proteins Bcl-2 and Bax by Western blotting. […] Experimental results were analyzed statistically using IBM SPSS 21.0 software. […]

[1] = system: mouse model of dementia caused by cerebral ischemia-reperfusion; experiment: Cognitive tests in mouse model of dementia caused by cerebral ischemia-reperfusion; format: in vivo, C57BL/6J mice
Method: 140 healthy C57BL/6J mice, including 70 males and 70 females, were used. 1% Pentobarbital Sodium (50 mg/kg) was injected intraperitoneally to anesthetize the mice. The back position was fixed, the neck hair was removed, and the common carotid arteries were cut along the middle of the neck after iodophor disinfection. The common carotid arteries were separated, clamped with a noninvasive artery clamp for 15 minutes, released for 10 minutes, and then clamped for 10 minutes. Penicillin powder was then applied to suture muscles and skin. The sham operation group was not clamped, and other operations were the same as for the model group. […] Mice were divided into 6 groups: sham operation group, model group, positive control group (donepezil) and test compound group (different doses). Test compounds were administered by gavage to each group on the next day of modeling. The compound group was given compounds once a day in the morning and evening, and the volume of each gavage was 10 ml/kg. Half of the animals in the sham operation group and the model group were given the same amount of distilled water, and half of the animals were given the same amount of 1% sodium carboxymethylcellulose solution. From the 16th day of administration, Y maze, new object discrimination (days 17-20), spontaneous activity (days 20), Morris water maze (days 23-28) and dark avoidance experiment (days 29-30) were carried out successively. During the behavioral experiment, the administration of compound was continued until the animals were sacrificed.
The main pathological index included: investigation of the improvement of learning and memory impairment by the compound in the pathogenic model of cerebral ischemia-reperfusion using behavioral experimental methods such as Y maze, new object discrimination, spontaneous activity, Morris water maze and passive avoidance experiment (dark avoidance); investigation of the ultrastructure of nerve cells (including nucleus, mitochondria and synapse) by HE staining and immunofluorescence; detection of expression of synaptic associated proteins SYP and PSD95 by Western blotting; and detection of expression of apoptosis-related proteins Bcl-2 and Bax by Western blotting. The experimental results for compound 4 on the expression of SYP and PSD95 in the hippocampus of dementia model mice induced by cerebral ischemia-reperfusion are shown in FIG. 5 and FIG. 6 and in Table V below. Experimental results were analyzed statistically using IBM SPSS 21.0 software. The differences between groups were compared by one-way ANOVA or two-way ANOVA (water maze directional navigation) and LSD test. Experimental data were expressed by “mean±SEM”, P<0.05.

Bcl-2 = Bcl-2 expression by Western blotting, ischemia-reperfusion dementia mice; format: in vivo, C57BL/6J mice
Method: as §1, §2

[2] = system: nerve cells (nucleus, mitochondria and synapse); experiment: Ultrastructure of nerve cells (transmission electron microscope), multiple cerebral infarction dementia rats; format: in vivo, SD rats; settings: compared with the model group, p<0.05
Method: Compound 4, 120 mg/kg, bid; D. Compound 4, 240 mg/kg, bid; E. Compound 4, 480 mg/kg, bid; F. Donepezil, 0.9 mg/kg.
135 SPF grade SD rats (75 females, 60 males, weighing 200-220 g) were used. Anesthesia was performed by intraperitoneal injection of 3.5% chloral hydrate (350 mg/kg). After dorsal fixation, neck hair removal and iodophor disinfection, animals were cut along the middle of the neck to separate the right common carotid artery, external carotid artery and internal carotid artery. […]
The main pathological indexes included investigation of the improvement of learning and memory impairment in the dementia model animal by test compound using behavioral experimental methods such as Y maze, new object discrimination, Morris water maze and passive avoidance test (dark avoidance); investigation of the protective effect of test compound on mitochondria by detecting the content of ATP in hippocampus and cortex of rats; and investigation of levels of oxidative stress in the rat brain by measuring activity of superoxide dismutase (SOD, which is an oxygen free-radical scavenger), glutathione peroxidase (GSH-Px, which scavenges lipid peroxides induced by reactive oxygen species and —OH), nitric oxide synthase (NOS), malondialdehyde (MDA), and nitric oxide (NO). […] Expression of synaptic associated proteins SYP and PSD95 was detected by Western blotting. […]

MBP = MBP expression in ischemia-reperfusion dementia mice; format: in vivo, C57BL/6J mice; settings: compared with the model group
Method: as §1, §2

[3] = system: nitric oxide synthase (NOS); experiment: NOS activity in cerebral cortex, multiple cerebral infarction dementia rats; format: in vivo, SD rats; settings: compared with the model group, p<0.05
Method: Compound 4, 120 mg/kg, bid; D. Compound 4, 240 mg/kg, bid; E. Compound 4, 480 mg/kg, bid; F. Donepezil, 0.9 mg/kg. Compared with sham operation group: ### P<0.001; Compared with the model group: ** P<0.01, *** P<0.001.
135 SPF grade SD rats (75 females, 60 males, weighing 200-220 g) were used. Anesthesia was performed by intraperitoneal injection of 3.5% chloral hydrate (350 mg/kg). After dorsal fixation, neck hair removal and iodophor disinfection, animals were cut along the middle of the neck to separate the right common carotid artery, external carotid artery and internal carotid artery. The common carotid artery was temporarily clamped by the artery clamp, the left external carotid artery was retrogradely punctured to the beginning of the left internal carotid artery with a pediatric scalp needle, and then 0.4 ml of embolic normal saline suspension was slowly injected with a syringe (the preparation of embolic normal saline suspension was as follows: blood was collected from the abdominal aorta of the same rat, dried naturally in a 37° C. incubator, and prepared for 80-200 minutes to form a blood clot; during application, 0.3 ml normal saline was added to every 10 mg blood clot), and the common carotid artery clamp was opened at the same time, then the external carotid artery was ligated and the skin was sutured. […]

[4] = system: rat model of dementia caused by multiple cerebral infarction; experiment: Cognitive tests in rat model of dementia caused by multiple cerebral infarction; format: in vivo, SD rats; settings: Test group vs model group
Method: 135 SPF grade SD rats (75 females, 60 males, weighing 200-220 g) were used. Anesthesia was performed by intraperitoneal injection of 3.5% chloral hydrate (350 mg/kg). After dorsal fixation, neck hair removal and iodophor disinfection, animals were cut along the middle of the neck to separate the right common carotid artery, external carotid artery and internal carotid artery. The common carotid artery was temporarily clamped by the artery clamp, the left external carotid artery was retrogradely punctured to the beginning of the left internal carotid artery with a pediatric scalp needle, and then 0.4 ml of embolic normal saline suspension was slowly injected with a syringe (the preparation of embolic normal saline suspension was as follows: blood was collected from the abdominal aorta of the same rat, dried naturally in a 37° C. incubator, and prepared for 80-200 minutes to form a blood clot; during application, 0.3 ml normal saline was added to every 10 mg blood clot), and the common carotid artery clamp was opened at the same time, then the external carotid artery was ligated and the skin was sutured. In the sham operation group, 0.4 ml normal saline was used instead of embolic suspension. The experimental animals were randomly divided into 6 groups according to weight balance, as follows: sham operation group, model group, positive control group (donepezil) and test compound group (different doses). There were 12-14 rats in each group. The animals in each group began to give drugs by gavage after modeling until the end of the experiment. The animals underwent Y maze experiment on the 16th day of administration, new object discrimination experiment on the 17th-20th day, Morris water maze experiment on the 22nd-27th day, and dark avoidance experiment on the 28th-29th day. On the 30th day, animals were sacrificed and tissues harvested for analysis.
The main pathological indexes included investigation of the improvement of learning and memory impairment in the dementia model animal by test compound using behavioral experimental methods such as Y maze, new object discrimination, Morris water maze and passive avoidance test (dark avoidance); investigation of the protective effect of test compound on mitochondria by detecting the content of ATP in hippocampus and cortex of rats; and investigation of levels of oxidative stress in the rat brain by measuring activity of superoxide dismutase (SOD, which is an oxygen free-radical scavenger), glutathione peroxidase (GSH-Px, which scavenges lipid peroxides induced by reactive oxygen species and —OH), nitric oxide synthase (NOS), malondialdehyde (MDA), and nitric oxide (NO). The ultrastructure of nerve cells (including nucleus, mitochondria and synapse) was investigated using immunofluorescence and transmission electron microscope. Expression of synaptic associated proteins SYP and PSD95 was detected by Western blotting. Experimental results for compound 4 on the concentration of nitric oxide (NO), the activity of nitric oxide synthase (NOS) and the ultrastructure of nerve cells in the rat model of dementia caused by multiple cerebral infarction are shown in FIGS. 7-11. Experimental results were statistically analyzed using IBM SPSS 21.0 software. The differences between groups were compared by one-way ANOVA or two-way ANOVA (water maze directional navigation) and LSD test.

[5] = Test group vs model group, n = 15-17, dose not stated
[6] = mice, gavage, morning and evening
[7] = first listing in Table VII, n = 12-14

For [2H]C([2H])(CCS(=O)(=O)O)NC(=O)[C@@H](N)C(C)C [compound 4, 3-((L-valyl)amino)-3,3-dideuterium-1-propanesulfonic Acid], the “Bax expression, p compared with model group” value (Bax; [5]) was “p < 0.01”, the “expression of Bax” value (Bax; compared with the model group) was “reduced” and the “Discrimination coefficient for new objects, p compared with model group” value [1, 5] was “p < 0.05”. The “Percentage of swimming distance, p compared with model group” value [1, 5] was “p < 0.05”, the “Priority index for new objects, p compared with model group” value [1, 5] was “p < 0.05” and the “Spontaneous alternating response rate, p compared with model group” value [1, 5] was “p < 0.05”. The “Swimming time in target quadrant, p compared with model group” value [1, 5] was “p < 0.05”, the “The incubation period for entering the darkroom, p compared with model group” value [1, 5] was “p < 0.05” and the “Times of crossing the platform, p compared with model group” value [1, 5] was “p < 0.01”. The “discrimination coefficient to new objects in the new object discrimination experiment” value [1, 6] was “improved”, the “incubation period of entering the dark room in the dark avoidance experiment” value [1, 6] was “prolonged” and the “number of times of crossing the platform” value [1, 6] was “increased”. For the same molecule, the “percentage of swimming distance in the target quadrant” value [1, 6] was “improved”, the “priority index to new objects in the new object discrimination experiment” value [1, 6] was “improved” and the “spontaneous alternating response rate in the Y maze experiment” value [1, 6] was “significantly improved”. The “swimming time in the target quadrant in the water maze test” value [1, 6] was “prolonged”, the “working memory, image recognition memory, spatial memory and long-term memory impairment” value ([1]; vascular dementia mice caused by cerebral ischemia-reperfusion) was “can significantly improve” and the “Bcl-2 expression, p compared with model group” value (Bcl-2; [5]) was “p < 0.01”. The “expression of Bcl-2” value (Bcl-2; compared with the model group) was “increased”, the “ultrastructure of nerve cells” value [2] was “improved” and the “expression of MBP in hippocampal CA1 area and cerebral cortex” value (MBP) was “increased”. The NOS activity [3] was “significantly reduced”, the “Percentage of swimming distance, p compared with model group” value ([4]; n = 12-14, dose not given) was “p < 0.001” and the “Spontaneous alternating response rate, p compared with model group” value ([4]; n = 12-14, dose not given) was “p < 0.001”. For the same molecule, the “Swimming time in target quadrant, p compared with model group” value ([4]; n = 12-14, dose not given) was “p < 0.05”, the “The incubation period for entering the darkroom, p compared with model group” value ([4]; n = 12-14, dose not given) was “p < 0.05” and the “Times of threading, p compared with model group” value ([4]; n = 12-14, dose not given) was “p < 0.05”. For the same molecule, the “Discrimination coefficient for new objects, p compared with model group” value [4, 7] was “p < 0.05” and the “Priority index for new objects, p compared with model group” value [4, 7] was “p < 0.05”.
